For orientation: EC50 means the concentration that produces a half-maximal response.

Each structure is given as a SMILES string. Like-named read-outs stand apart in the source and are kept apart here.

One data set deals with SKMEL-2 cells. Description: DDA-induced cytotoxicity. The conditions noted are these: Homo sapiens, SK-MEL-2; SKMEL-2 (H), BRaf WT; 72 h; read-out: Cytotox EC50. The format is cell-based. The procedure:
(§1) Melanoma cells were seeded into 6-well plates at 60,000 cells per well and AML cells at 250,000 cells/ml. The cells were then treated with control solvent vehicle (1/1000 ethanol in water) or DDA. Where indicated, treated cells were incubated in the presence or absence of each inhibitor for time shown. Cell death was determined by the trypan blue exclusion assay. Cells were scraped and resuspended in trypan blue solution (0.25% (w/v) in PBS) and counted in a Malassez cell under light microscopy. Cell viability was then quantified by counting viable (trypan blue-negative) and dead cells (trypan blue-positive). […]
(§2) (cytotox) and clonogenicity (clono) inhibition in a subset of human (H) and mouse (M)
(§3) m elanom a cell lines. T he BRaf status in m elanom a cells lines is shown. […]

Another data set concerns WM35 cells. Description: DDA-induced cytotoxicity. The format is cell-based. The conditions noted are these: Homo sapiens; WM35 (H), BRaf V600E; 72 h; read-out: Cytotox EC50. Here is the method: as §1, §2, §3
The test system of a further data set is WM-266-4 cells. Description: DDA-induced cytotoxicity. Format: cell-based. The conditions noted are these: Homo sapiens; WM-266-4 (H), BRaf WT; 72 h; read-out: Cytotox EC50. Here is the method:
as §1, §2, §3

A further data set has as its system WM115 cells. In words: DDA-induced cytotoxicity. The conditions noted are these: Homo sapiens, WM-115; WM115 (H), BRaf V600E; 72 h; read-out: Cytotox EC50. The format is cell-based. The procedure:
as §1, §2, §3

In another data set the test system is A375 cells. In words: DDA-induced cytotoxicity. To be noted: Homo sapiens, A-375; A375 (H), BRaf V600E; 72 h; read-out: Cytotox EC50. Format: cell-based. The procedure:
as §1, §2, §3

Data set [1] is described as follows: DDA concentrations in spleen and bone marrow. The format is in vivo, NSG mice. To be noted: NSG, mouse, ip, daily i.p. 20 mg/kg for 21 days. Here is the method: Bars represent S.E.M. ( ***P<0.001, **P<0.01, t test).
(also on this page, place not known: plasma times treatment mice administration plasma times treatment mice administration mg/kg mg/kg Summary pharmacokinetic parameters mice. were measured daily administration mg/kg days. (***P<0.001, mg/kg DDA in plasma (p.o.) (p.o.) DDA in plasma (µM) i.p. i.v. (mg/kg) 20 T1/2 0.1 T1/2 elimination 1.0 T1/2 - Bioavailability (%EP) (µM) 370 Tmax 0.002 marrow 0.01 0.1 1 10 Control DDA DDA level (µM) ***)

In a further data set the test system is B16F10 cells. Description: Cell cycle analysis by flow cytometry. The conditions noted are these: 5 µM DDA, 48 h. The format is cell-based, mouse. The procedure: Control and DDA-treated cells were fixed in 70% ethanol and then washed with PBS. Cells were incubated with 100 μg/ml RNase A for 30 min at 37 °C, permeabilized with 0.25% Tween-20, and stained with 50 μg/ml propidium iodide (PI) for 30 min at 37 °C. The DNA content of stained cells was analyzed by flow cytometry. The fraction of cells in sub-G1 phase was calculated using flowJo software (Ashland, Oregon). Data were obtained from 10^5 viable cells. […]
In general terms: Flow cytometry measures light scatter and fluorescence of single cells or particles in a stream.

As to `CC(C)CCC[C@@H](C)[C@H]1CC[C@H]2[C@@H]3C[C@@H](NCCc4cnc[nH]4)[C@@]4(O)C[C@@H](O)CC[C@]4(C)[C@H]3CC[C@]12C` [DDA, Dendrogenin A], the EC50 in the data set with SKMEL-2 cells was found to be 2300 ± 100 nM; in the data set with WM35 cells, 1600 ± 100 nM; in the data set with WM-266-4 cells, 2700 ± 400 nM; with WM115 cells, 2200 ± 200 nM; in the data set with A375 cells it was 1800 ± 200 nM. In addition, the concentration at 21 days worked out at 3480 ± 530 nM in data set [1] (bone marrow, read-out: DDA concentration in the bone marrow) and 1320 ± 30 nM in data set [1] (spleen, read-out: DDA concentration in the spleen). Besides, in the data set on B16F10 cells, the “Cell cycle distribution: G0/G1” value was determined as 54.50%. Besides, the “Cell cycle distribution: G2/M” value in the data set on B16F10 cells amounted to 9.83%. Also, the “Cell cycle distribution: S” value with B16F10 cells was 9.68%. Moreover, the “Cell cycle distribution: Sub G0/G1” value in the data set on B16F10 cells is on record as 25.03%.

The values are drawn from PMC5712521, “Dendrogenin A drives LXR to trigger lethal autophagy in cancers” (Nature Communications, 2017).
